Measurements reported in US6187802A, “Substituted 4-arylmethylene-2-imino-2,3-dihydrothiazoles and derivatives and their pharmaceutical use” (Knoll Aktiengesellschaft, priority 1997, dated 2001).
Structures can show the parent of a compound that is named as a salt. Where two headings read alike, the source gives them in different places.

Key:
Type in all cases: biochemical
[1] = molecular target: T1, noradrenaline (NA) reuptake sites (Rattus norvegicus, UniProt Q63380); assay: inhibition of [3H]noradrenaline uptake in vitro, frontal cortical synaptosomes; settings: [3H]noradrenaline 10 nM, means of three independent determinations
T1 construct: Frontal cortical tissue from the brains of male Sprague-Dawley rats; from tissue; host or cells: rat brain frontal cortex (crude synaptosomes in A3, washed membranes in A6)
T1 sequence (Q63380 1-617): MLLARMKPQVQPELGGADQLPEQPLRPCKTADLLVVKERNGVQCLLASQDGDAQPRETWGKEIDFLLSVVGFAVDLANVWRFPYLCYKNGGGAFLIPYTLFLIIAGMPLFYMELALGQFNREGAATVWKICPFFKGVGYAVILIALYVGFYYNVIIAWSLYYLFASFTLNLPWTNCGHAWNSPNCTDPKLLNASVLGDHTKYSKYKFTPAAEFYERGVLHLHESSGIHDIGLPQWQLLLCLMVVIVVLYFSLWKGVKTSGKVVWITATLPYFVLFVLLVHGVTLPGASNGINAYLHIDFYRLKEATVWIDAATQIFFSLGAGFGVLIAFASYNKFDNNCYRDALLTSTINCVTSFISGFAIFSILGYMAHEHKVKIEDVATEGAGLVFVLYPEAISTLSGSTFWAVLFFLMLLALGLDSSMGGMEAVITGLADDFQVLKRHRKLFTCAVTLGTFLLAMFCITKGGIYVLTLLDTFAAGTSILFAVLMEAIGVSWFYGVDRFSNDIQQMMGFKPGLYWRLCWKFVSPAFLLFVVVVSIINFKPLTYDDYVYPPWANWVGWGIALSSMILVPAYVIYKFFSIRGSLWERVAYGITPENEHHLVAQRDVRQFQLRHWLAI
Method: (§1) Frontal cortical tissue from the brains of male Sprague-Dawley rats (Charles River; weight range 150-250 g) was homogenised in ice-cold 0.32M sucrose (1:10 w/v) using a motor driven teflon pestle (difference in diameter between mortar and pestle 0.5 mm). Nuclei and cell debris were removed by centrifugation at 1,500 g at 4° C. for 10 minutes. The pellet (P1) was discarded and the supernatant centrifuged at 28,000 g at 4° C. for 10 minutes. The crude synaptosomal pellet (P2) was resuspended in Krebs-Physiological buffer (equivalent to 16.7 mg wet weight of tissue/ml).
Crude synaptosomes were incubated in a shaking water bath at 37° C. for 15 minutes. Aliquots (150 μl; equivalent to 2.5 mg wet weight of tissue/tube) were then added to tubes containing 275 μl of Krebs-Physiological buffer and 50 μl of Krebs-Physiological buffer (total uptake) or 50 μl of test compound (at 10 concentrations ranging from […]) or 50 μl of desipramine (10^-5 M; non-specific uptake). Uptake was initiated by the addition of 25 μl of freshly prepared [^3 H]noradrenaline (10 nM), followed by vortexing and was continued for 5 minutes at 37° C. in the shaking water bath. Uptake was terminated by filtration under vacuum through Whatman GF/B filters using a Brandel cell harvester. Filters were then washed with 8 ml ice-cold saline. The scored filter paper discs were placed into vials, scintillation fluid added and radioactivity determined by liquid scintillation counting.
(§2) For each of the dopamine (DA) uptake, 5-hydroxytryptamine (5-HT) uptake and noradrenaline (NA) uptake inhibition tests, the percentage inhibition of specific uptake of the tritiated ligand was calculated for each concentration of test compound. Inhibition curves were then produced. The concentration which gave 50% inhibition of specific uptake (IC50) was obtained from the curve. The inhibition constant (Ki) was then calculated using the formula [formula]
(§3) in which [ligand] is the concentration of tritiated ligand used and Km is the affinity of the uptake site for the ligand. […] Values are means of three independent determinations unless otherwise indicated.

[2] = molecular target: T2, 5-hydroxytryptamine (5-HT) reuptake sites (Rattus norvegicus, UniProt P31652); assay: inhibition of [3H]5-HT uptake in vitro, frontal cortical synaptosomes
T2 construct: Frontal cortical tissue from the brains of male Sprague-Dawley rats; from tissue; host or cells: rat brain frontal cortex (crude synaptosomes in A2, washed membranes in A5)
T2 sequence (P31652 whole entry): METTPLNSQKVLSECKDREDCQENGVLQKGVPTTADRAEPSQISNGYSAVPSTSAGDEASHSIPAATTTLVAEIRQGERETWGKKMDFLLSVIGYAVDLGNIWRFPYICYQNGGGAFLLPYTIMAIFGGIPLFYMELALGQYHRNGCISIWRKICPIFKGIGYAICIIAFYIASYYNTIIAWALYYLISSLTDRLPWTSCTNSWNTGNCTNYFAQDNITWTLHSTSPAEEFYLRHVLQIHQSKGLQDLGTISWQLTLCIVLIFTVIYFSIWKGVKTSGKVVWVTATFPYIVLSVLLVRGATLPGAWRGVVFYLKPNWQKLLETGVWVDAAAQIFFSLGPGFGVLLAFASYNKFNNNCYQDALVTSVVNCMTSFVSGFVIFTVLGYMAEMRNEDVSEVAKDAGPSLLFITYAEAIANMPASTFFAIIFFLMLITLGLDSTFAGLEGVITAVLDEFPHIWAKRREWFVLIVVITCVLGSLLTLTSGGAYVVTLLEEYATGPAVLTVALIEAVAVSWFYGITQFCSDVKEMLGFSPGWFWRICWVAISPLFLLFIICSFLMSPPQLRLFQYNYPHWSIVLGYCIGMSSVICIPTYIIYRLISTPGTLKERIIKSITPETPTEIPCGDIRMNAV
Method: as §1, with “Krebs-Henseleit” for “Krebs-Physiological”, “8.3” for “16.7”
Crude synaptosomes were incubated in a shaking water bath at 37° C. for 15 minutes. Aliquots (150 μl; equivalent to 1.25 mg wet weight of tissue/tube) were then added to tubes containing 275 μl of Krebs-Henseleit buffer and 50 μl of Krebs-Henseleit buffer (total uptake) or 50 μl of test compound (at 10 concentrations ranging from 10^-11 -10^-4 M) or 50 μl of zimeldine (10^-5 M; non-specific uptake). Uptake was initiated by the addition of 25 μl of freshly prepared [^3 H]5-HT (2 nM), followed by vortexing, and was continued for 5 minutes at 37° C. in the shaking water bath. Uptake was terminated by filtration under vacuum through Skatron 11734 filters using a Skatron cell harvester. Filters were then washed with 8 ml ice-cold saline. The scored filter paper discs were punched into vials, scintillation fluid added and radioactivity determined by liquid scintillation counting.
as §2, §3

[3] = molecular target: T3, dopamine (DA) reuptake sites (Rattus norvegicus, UniProt P23977); assay: inhibition of [3H]dopamine uptake in vitro, striatal synaptosomes; settings: [3H]dopamine 2.5 nM, means of three independent determinations
T3 construct: Striatal tissue from the brains of male Charles River rats weighing 150-250 g; from tissue; host or cells: rat brain striatum (crude synaptosomes in A1, washed membranes in A4)
T3 sequence (P23977 whole entry): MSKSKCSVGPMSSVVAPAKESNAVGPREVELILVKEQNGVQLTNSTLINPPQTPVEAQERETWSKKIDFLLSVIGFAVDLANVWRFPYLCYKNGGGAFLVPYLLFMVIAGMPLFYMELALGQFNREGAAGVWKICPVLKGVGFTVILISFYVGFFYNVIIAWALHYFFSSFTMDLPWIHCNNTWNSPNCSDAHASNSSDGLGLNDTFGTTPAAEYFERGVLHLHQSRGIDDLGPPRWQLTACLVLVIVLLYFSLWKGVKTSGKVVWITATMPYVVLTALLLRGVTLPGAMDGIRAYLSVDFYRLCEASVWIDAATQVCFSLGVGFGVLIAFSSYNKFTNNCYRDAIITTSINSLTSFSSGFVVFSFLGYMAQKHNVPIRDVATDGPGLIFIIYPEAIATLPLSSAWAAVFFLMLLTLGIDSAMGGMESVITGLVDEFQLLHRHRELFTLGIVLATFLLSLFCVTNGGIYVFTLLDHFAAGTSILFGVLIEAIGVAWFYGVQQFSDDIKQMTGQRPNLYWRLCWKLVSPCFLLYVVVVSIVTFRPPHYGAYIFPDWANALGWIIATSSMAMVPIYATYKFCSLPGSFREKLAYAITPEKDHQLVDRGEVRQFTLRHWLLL
Method: as §1, with “Striatal” for “Frontal cortical”, “Charles River” for “Sprague-Dawley”, “weighing” for “(Charles River; weight range”, “g” for “g)”, “Krebs-Henseleit” for “Krebs-Physiological”, “4.2” for “16.7”
Crude synaptosomes were incubated in a shaking water bath at 37° C. for 15 minutes. Aliquots (150 μl; equivalent to 0.625 mg wet weight of tissue/tube) were then added to tubes containing 275 μl of Krebs-Henseleit buffer and 50 μl of Krebs-Henseleit buffer (total uptake) or 50 μl of test compound (10 concentrations ranging from 10^-11 -10^-4 M or 50 μl of GBR 12909 (10^-5 M; non-specific uptake). Uptake was initiated by the addition of 25 μl of freshly prepared [^3 H]dopamine (2.5 nM), followed by vortexing and was continued for 5 minutes at 37° C. in the shaking water bath.
Uptake was terminated by filtration under vacuum through Skatron 11735 filters using a Skatron cell harvester. Filters were then washed with 8 ml ice-cold saline. The scored filter paper discs were punched into vials, scintillation fluid added and radioactivity determined by liquid scintillation counting.
as §2, §3

| Structure (SMILES) | Ki [1] [nM] | Ki [2] [nM] | Ki [3] [nM] | Ki ([2]; rat frontal cortical synaptosomes, [3H]5-HT 2 nM, means of three independent determinations, read-out: 5-HT uptake (Ki)) [nM] |
| --- | --- | --- | --- | --- |
| Clc1ccc(C2(C3=CSC4=NCCCN34)CCC2)cc1Cl [Example 4, 3-[1-(3,4-dichlorophenyl)cyclobutyl]-6,7-dihydro-5H-thiazolo[3,2-a]pyrimidine hydrobromide] | 15 | 137 | 9.5 | – |
| Clc1ccc(C2(C3=CSC4=NCCCN34)CCC2)cc1 [Example 2, 3-[1-(4-chlorophenyl)cyclobutyl]-6,7-dihydro-5H-thiazolo[3,2-a]pyrimidine hydrobromide] | 261 | 782 | 104 | – |
| Clc1ccc(C2(C3=CSC4=NCCN34)CCC2)cc1Cl [Example 1, 3-[1-(3,4-dichlorophenyl)cyclobuty]-5,6-dihydroimidazo[2,1-b]thiazole hydrobromide] | 34 | – | 9.2 | 120 |
| C1=C(C2(c3ccc4ccccc4c3)CCC2)N2CCN=C2S1 [Example 5, 3-[1-(2-naphthyl)cyclobutyl]-5,6-dihydroimidazo[2,1-b]thiazole hydrobromide] | 4.4 | 25 | 5.9 | – |
| Clc1ccc(C2(C3=CSC4=NCCN34)CCC2)cc1 [Example 3, 3-[1-(4-chlorophenyl)cyclobutyl]-5,6-dihydroimidazo-[2,1-b]thiazole hydrobromide] | 22 | 795 | 79 | – |
